Experimental data as given in US10138250B2, “Salt of pyrrolo[2,3-D]pyrimidine compound and novel polymorph of salt” (Crystal Pharmatech Co., Ltd., priority 2014, dated 2018).
Entries after “also recorded” stand apart in the source; their conditions may differ. Like-named read-outs stand apart in the source and are kept apart here.

Assays:
[1] = data in patent CN103201275A, cited from earlier work
[2] = Conversion of mono-succinate non-hydrate form to hemi-succinate Form A by stirring in solvents; format: physicochemical; conditions: cell continues 'Form A'
Method: About 10 mg of the non-hydrate form in patent CN103201275A as starting form was added in different solvents or mixed solvents (v/v), then stirred at 5˜50° C. for about 48 hours.

[3] = Conversion of mono-succinate non-hydrate form to Form I by stirring in solvents at different temperatures; format: physicochemical; conditions: cell continues 'Form I'
Method: About 10 mg of the non-hydrate form in patent CN103201275A as starting form was added in different solvents or mixed solvents (v/v), then stirred at 5-50° C. for about 48 hours. Finally, the starting form converted to Form I. Solvents and temperature used in this example is in the following in table 6.

[4] = Dynamic Vapor Sorption (DVS) hygroscopicity test with XRPD before and after; format: physicochemical; conditions: for solid form change after hygroscopicity test (XRPD): XRPD before and after DVS 0-95% RH cycle; for Change after DVS: XRPD before and after DVS
Method: Dynamic Vapor Sorption (DVS) was measured via a SMS (Surface Measurement Systems) DVS Intrinsic. Typical Parameters for DVS test are listed below.
Gas and flow rate: N2, 200 mL/min
RH range: 0% RH to 95% RH
About 10.0 mg of hemi-succinate Form A was analyzed by DVS. The solid form was tested by XRPD before and after DVS.
About hygroscopicity characterization description and definition of hygroscopicity (Chinese Pharmacopoeia 2010 edition appendix XIXJ Drug hygroscopic test guidelines, test at 25° C.+/−1° C., 80% Relative Humidity)
About 10 mg of mono-succinate Form I of the present invention and non-hydrate form in patent CN103201275A were analyzed by DVS. The solid was tested by XRPD before and after hygroscopicity test.
The solid was tested by XRPD before and after hygroscopicity test.

[5] = Storage stability of crystalline salt forms (XRPD, HPLC purity); format: physicochemical; conditions: 30 days; for Solid Form after storage: XRPD
Method: Two samples prepared by example 9, example 11 and example 13 were stored for 30 days under 25° C./60% RH and 40° C./75% RH.

SMILES	Water absorption at 25° C./95% RH ([4]; DVS)	HPLC Purity after storage ([5]; 25° C./60% RH)	Solid Form after storage ([5]; 25° C./60% RH)	HPLC Purity after storage ([5]; 40° C./75% RH)	Solid Form after storage ([5]; 40° C./75% RH)	Change after DVS [4]	also measured
CN(C)C(=O)c1cc2cnc(Nc3ccc(N4CCNCC4)cn3)nc2n1C1CCCC1.O=C(O)CO [glycollate Form A]	1.2%	99.7%	No Change	99.6%	No Change	did not change; also recorded: No change	–
CN(C)C(=O)c1cc2cnc(Nc3ccc(N4CCNCC4)cn3)nc2n1C1CCCC1.CN(C)C(=O)c1cc2cnc(Nc3ccc(N4CCNCC4)cn3)nc2n1C1CCCC1.O=C(O)CCC(=O)O [hemi-succinate Form A]	–	–	–	–	–	–	weight gain at 80% RH ([4]; DVS, 25° C., 80% RH): 3.5%; hygroscopicity class ([4]; DVS, 80% RH): slightly hygroscopic (increase in mass is less than 2 percent and equal to or greater than 0.2 percent)
CN(C)C(=O)c1cc2cnc(Nc3ccc(N4CCNCC4)cn3)nc2n1C1CCCC1.O=C(O)/C=C\C(=O)O [maleate Form A]	3.4%	99.3%	No Change	99.3%	No Change	did not change; also recorded: No change	–
CN(C)C(=O)c1cc2cnc(Nc3ccc(N4CCNCC4)cn3)nc2n1C1CCCC1.O=C(O)CCC(=O)O [mono-succinate Form I]	–	–	–	–	–	–	water adsorbed at 25° C./90% RH ([4]; DVS, 25° C./90% RH): 1.7%; water adsorbed at 25° C./95% RH ([4]; DVS, listed as Form I): 4.0%; solid form change after hygroscopicity test (XRPD) ([4]; listed as Form I): did not change

Now from value to compound, other results behind:

Water absorption at 25° C./95% RH ([4]; DVS)	HPLC Purity after storage ([5]; 25° C./60% RH)	Solid Form after storage ([5]; 25° C./60% RH)	HPLC Purity after storage ([5]; 40° C./75% RH)	Solid Form after storage ([5]; 40° C./75% RH)	Change after DVS [4]	SMILES	also measured
18.3%	–	–	–	–	–	CN(C)C(=O)c1cc2cnc(Nc3ccc(N4CCNCC4)cn3)nc2n1C1CCCC1.O=C(O)CCC(=O)O	share of non-hydrate form converted to hydrate form ([1]; 25° C./80% RH): 0.52%; share of non-hydrate form converted to hydrate form ([1]; 25° C./90% RH): 7.35%; water adsorbed at 25° C./90% RH ([1]; 25° C./90% RH): 2.0%; Final Form ([2]; Acetone:water = 20:1, stirred at 5˜50° C. about 48 hours): hemi-succinate; Final Form ([2]; Ethanol:water = 20:1, stirred at 5˜50° C. about 48 hours): hemi-succinate; Final Form ([2]; Ethyl acetate, stirred at 5˜50° C. about 48 hours): hemi-succinate; Final Form ([2]; Tetrahydrofuran:water = 20:1, stirred at 5˜50° C. about 48 hours): hemi-succinate; Final Form ([3]; 5° C., Ethanol:n-heptane = 4:1, about 48 hours): mono-succinate; Final Form ([3]; 50° C., Acetonitrile:water = 20:1, about 48 hours): mono-succinate; Final Form ([3]; 50° C., THF:Methanol = 20:1, about 48 hours): mono-succinate; Final Form ([3]; RT, Ethanol:n-heptane = 4:1, about 48 hours): mono-succinate; water adsorbed at 25° C./95% RH ([4]; DVS): 18.3%; solid form change after hygroscopicity test (XRPD) [4]: changed; Change after DVS ([4]; listed as non-hydrate form in patent CN103201275A): changed
0.7%	99.1%	No Change	98.9%	No Change	did not change; also recorded: No change	CN(C)C(=O)c1cc2cnc(Nc3ccc(N4CCNCC4)cn3)nc2n1C1CCCC1.O=C(O)CCCCC(=O)O [adipate Form A]	–
